Results as given in PubChem BioAssay AID434951 (Broad Institute, 2010).
The source made the active and inactive calls.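 How the source made its calls: active means a fitted half-maximal concentration EC50 for the rise in nuclear signal no higher than ten times the top dose tested; inconclusive means flat fit with activity between 30% and 70%, or unusable fit; inactive means EC50 beyond ten times the top dose.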

Target: Hypoxia-inducible factor 1-alpha (Homo sapiens) (UniProt Q16665)
Test: activators of HIF1alpha nuclear accumulation, confirmation, imaging, fluorescence, U2OS GFP-HIF1alpha (AID 434951)
Conditions: U2OS GFP-HIF1alpha nuclear intensity, high-content imaging

Chain of Hypoxia-inducible factor 1-alpha (Homo sapiens) (Q16665 whole entry, looked up): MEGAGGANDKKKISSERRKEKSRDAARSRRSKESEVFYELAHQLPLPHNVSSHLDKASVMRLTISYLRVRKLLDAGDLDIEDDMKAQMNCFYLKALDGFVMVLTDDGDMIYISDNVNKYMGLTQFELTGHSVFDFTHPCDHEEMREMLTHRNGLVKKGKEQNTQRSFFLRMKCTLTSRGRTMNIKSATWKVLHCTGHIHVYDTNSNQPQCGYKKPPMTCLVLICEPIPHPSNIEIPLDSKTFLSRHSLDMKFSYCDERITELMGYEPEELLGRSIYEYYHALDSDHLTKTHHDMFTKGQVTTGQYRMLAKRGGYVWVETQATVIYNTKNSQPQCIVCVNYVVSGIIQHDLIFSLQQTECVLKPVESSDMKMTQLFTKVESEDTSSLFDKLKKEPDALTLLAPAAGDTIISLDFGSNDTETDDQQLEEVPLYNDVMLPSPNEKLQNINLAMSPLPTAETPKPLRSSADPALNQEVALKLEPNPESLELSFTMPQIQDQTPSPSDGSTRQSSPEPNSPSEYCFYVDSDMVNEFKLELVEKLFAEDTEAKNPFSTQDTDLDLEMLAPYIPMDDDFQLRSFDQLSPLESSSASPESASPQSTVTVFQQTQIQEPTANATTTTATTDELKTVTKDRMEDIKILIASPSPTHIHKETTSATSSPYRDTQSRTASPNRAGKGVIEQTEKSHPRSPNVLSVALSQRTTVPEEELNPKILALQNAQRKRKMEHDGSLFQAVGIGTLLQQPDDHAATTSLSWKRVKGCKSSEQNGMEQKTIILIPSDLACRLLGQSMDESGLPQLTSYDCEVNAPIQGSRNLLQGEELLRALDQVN

Row | EC50 | Structure (SMILES)
1 | 8.67 µM | COc1ccc2[nH]c(C(=O)N/N=C/c3ccc(O)cc3O)cc2c1
2 | 0.629 µM | O=C(N/N=C(\c1ccccc1)c1ccccn1)c1cccc([N+](=O)[O-])c1
3 | > 35 µM (inactive) | O=C(Nc1cccc(-c2cn3ccccc3n2)c1)C1CC1
4 | 11.9 µM | Oc1c(CN2CCCCC2)cc(COCc2ccccc2)c2cccnc12
5 | 11.5 µM | O=C(CCSc1nc2ccccc2s1)N/N=C/c1c(O)ccc2ccccc12
6 | 6.66 µM | CCCC(=O)NC(c1ccccc1Cl)c1ccc2cccnc2c1O (configuration not stated)
7 | 9.68 µM | O=c1c2ccccc2nc(COc2ccccc2)n1/N=C/c1ccc(O)cc1O
8 | 7.26 µM | Oc1c(CN2CCc3ccccc3C2)cc(Cl)c2cccnc12
9 | > 35 µM (inactive) | Cc1cccc(NC(=O)Cc2noc3ccccc23)c1
10 | 27 µM | Cc1cc(NC(=O)c2ccccc2)n(-c2nc3ccccc3[nH]2)n1
11 | > 35 µM (inactive) | Cc1ccc2c(c1)cc(C(=O)NCc1ccccc1)n2C
12 | 32.4 µM | OCCNc1c2ccccc2nc2ccccc12
13 | 12.3 µM | O=C(N/N=C/c1c(O)ccc2ccccc12)c1ccc(Br)o1
14 | 4.41 µM | Cc1ccc(Nc2c(-c3ccccn3)nc3cccc(C)n23)cc1
15 | 7.81 µM | CCCCn1c(/C=N/Nc2nc3ccccc3[nH]2)nc2ccccc21
16 | 6.14 µM | Cc1ccc(Nc2c(-c3ccccn3)nc3ccc(C)cn23)cc1
17 | > 35 µM (inactive) | O=C(NC(=S)Nc1ccccn1)c1cccc([N+](=O)[O-])c1
18 | 1.8 µM | C/C(=N\Nc1nc2ccccc2[nH]1)c1ccccn1
19 | > 35 µM (inactive) | C[C@@H](C(=O)Nc1ccc2c(c1)OCCO2)n1c(=O)[nH]c2ccccc2c1=O
20 | 1.27 µM | COc1cccc(/C=N/Nc2ncnc3scc(-c4ccccc4)c23)c1O

Row | EC50 | Structure (SMILES)
21 | > 35 µM (inactive) | O=C(NCc1nc2ccccc2[nH]1)c1c(F)c(F)c(F)c(F)c1F
22 | 11.8 µM | CCC(=O)NC(c1ccc(OC)cc1)c1cc(Cl)c2cccnc2c1O (configuration not stated)
23 | > 35 µM (inactive) | Oc1ccc(-c2cn3ccccc3n2)cc1O
24 | 8.61 µM | Cc1ccccc1Nc1c(-c2ccccn2)nc2ccccn12
25 | > 35 µM (inactive) | Oc1ccc(N=Nc2ccc3c(c2)OCCO3)c2cccnc12
26 | 5.41 µM | COc1ccccc1N1CCN(Cc2ccc(O)c3ncccc23)CC1
27 | > 35 µM (inactive) | O=C(NC(c1ccccc1)c1ccccc1)C1CCCO1 (configuration not stated)
28 | 4.47 µM | CC(C)C(=O)NC(c1ccco1)c1ccc2cccnc2c1O (configuration not stated)
29 | 7.1 µM | Oc1c(C(Nc2nc3ccccc3s2)c2ccco2)ccc2cccnc12 (configuration not stated)
30 | 18.6 µM | c1ccc(CSC2=NNC(c3ccccn3)S2)cc1 (configuration not stated)
31 | > 35 µM (inactive) | CCn1ccnc1C(O)c1ccccc1OC (configuration not stated)
32 | > 35 µM (inactive) | COc1ccc(C(CC(=O)Nc2ccccc2OC)n2cccc2)cc1 (configuration not stated)
33 | 6.13 µM | Cc1ccc2nc(-c3ccccn3)c(Nc3ccccc3C)n2c1
34 | 13.2 µM | O=C(CCc1ccccc1)N/N=C/c1cc(Br)ccc1O
35 | > 35 µM (inactive) | COc1ccc2nc(NC(=O)Nc3ccccc3OC)sc2c1
36 | > 35 µM (inactive) | O=C(/C=C/c1cn(-c2ccccc2)nc1-c1ccccc1)Nc1ccc(C(=O)O)cc1
37 | > 35 µM (inactive) | COc1ccc(NC(=S)NCc2cccnc2)cc1
38 | > 35 µM (inactive) | COc1ccc(NC(=S)Nc2ccccn2)c(OC)c1
39 | 4.71 µM | CCCC(=O)NC(c1ccccc1)c1ccc2cccnc2c1O (configuration not stated)

Further lines, the compound ahead of its results:

Row | Structure (SMILES) | EC50
40 | COc1ccccc1C(=O)Nc1ccccc1SC(=O)c1ccccc1OC | > 35 µM (inactive)
41 | CC(NC(=O)C12CC3CC(CC(O)(C3)C1)C2)c1ccc(Cl)cc1Cl (configuration not stated) | > 35 µM (inactive)
42 | O=C(COc1ccccc1)N(Cc1cccc(F)c1)C1CCS(=O)(=O)C1 (configuration not stated) | > 35 µM (inactive)
43 | COc1ccccc1N(CC(=O)NC1CCCCC1)S(C)(=O)=O | > 35 µM (inactive)
44 | CCn1c(N2CCC(Cc3ccccc3)CC2)nc2c1c(=O)[nH]c(=O)n2C | > 35 µM (inactive)
45 | COc1ccc(N2CCN(S(=O)(=O)c3cc(-c4cc(C)no4)ccc3C(C)C)CC2)cc1 | > 35 µM (inactive)
46 | COc1ccc(-c2nnc(-c3cc4c(ccc5ccccc54)oc3=O)o2)cc1 | > 35 µM (inactive)
47 | Cc1cccc(OCC(=O)NCC(=O)N/N=C/c2cccnc2)c1 | > 35 µM (inactive)
48 | Cc1nc2nc(-c3ccco3)nn2c(C)c1Cl | > 35 µM (inactive)
49 | O=C(NCCCn1ccnc1)c1cc(-c2cccs2)on1 | 2.68 µM
50 | COc1ccc2oc(=O)c(C(=O)NC3CCCCCC3)cc2c1 | > 35 µM (inactive)
51 | CC(C)C(=O)N1CCN(c2nc3ccc(Cl)cc3s2)CC1 | > 35 µM (inactive)
52 | O=C(N/N=C/c1cccnc1)c1ccc(NC(=O)c2ccc(Cl)cc2)cc1 | > 35 µM (inactive)
53 | COC(=O)Nc1nnc(Cc2ccc(OC)cc2)s1 | > 35 µM (inactive)
54 | COc1ccc(NC(=O)CSc2ncnc3[nH]ncc23)cc1 | > 35 µM (inactive)
55 | CC(=O)N1CCC(=NNC(=O)c2cc3ccccc3cc2O)CC1 | > 35 µM (inactive)
56 | COc1ccc(NC(=O)c2cccc(NC(=O)c3ccco3)c2)c(OC)c1 | > 35 µM (inactive)
57 | CCC1CCc2sc(C(=O)NCc3ccccn3)cc2C1 (configuration not stated) | > 35 µM (inactive)
58 | Cc1ccc(/C=N/NC(=O)c2ccc(Br)o2)s1 | > 35 µM (inactive)
59 | COc1ccccc1-c1cc(C(F)(F)F)nc(S(C)(=O)=O)n1 | 18 µM
60 | COC(=O)Cc1ccc(NC(=S)NC(C)(C)C)cc1 | > 35 µM (inactive)
61 | CN(Cc1cccc(C(F)(F)F)c1)C(=O)C1CCC(=O)N(CC2CCCCC2)C1 (configuration not stated) | > 35 µM (inactive)
62 | Cc1ccc(-c2cc(C(=O)N3CCCCCC3)no2)cc1 | > 35 µM (inactive)

Row | Structure (SMILES) | EC50
63 | Cc1ccc(C2(C)NC(=O)N(CC(=O)NC(=O)NC(C)(C)C)C2=O)cc1 (configuration not stated) | > 35 µM (inactive)
64 | Cc1ccc(-c2cc(C(=O)Nc3cccnc3)[nH]n2)c(O)c1C | > 35 µM (inactive)
65 | CC(=O)Nc1cccc(NC(=O)CS(=O)(=O)c2cn(CC(=O)N3CCOCC3)c3ccccc23)c1 | > 35 µM (inactive)
66 | CC1(C)Cc2c(C#N)c(SCCC#N)nc(N3CCOCC3)c2CO1 | > 35 µM (inactive)
67 | COc1ccc(NC(=O)C(=O)NNC(=O)c2ccc(Cl)cc2Cl)cc1 | > 35 µM (inactive)
68 | CCN(CC)CCn1c2ccccc2c2cnc(N)c(C#N)c21 | > 35 µM (inactive)
69 | CC(=O)Nc1ccc2c(c1)CCCC2=O | > 35 µM (inactive)
70 | COc1cc(/C=C/C(=O)c2ccc3c(c2)OCCO3)cc(Br)c1OCC(=O)N(C)C | > 35 µM (inactive)
71 | CCN(CC)CCn1nc2c3c(cccc3c1=O)-c1ccccc1-2 | > 35 µM (inactive)
72 | CNNC(=O)C(C)NC(=O)c1ccc(Br)cc1 (configuration not stated) | > 35 µM (inactive)
73 | CCn1nc(C(=O)OCC(=O)NC(C)C)c2ccccc2c1=O | > 35 µM (inactive)
74 | CCCCNC(=O)c1cc(-c2ccc(F)cc2)on1 | 9.23 µM
75 | Cc1nn(C)cc1S(=O)(=O)NCc1ccc2c(c1)OCO2 | > 35 µM (inactive)
76 | Cc1ccc(C(=O)Nc2ccc3c(c2)nc(CCNC(=O)c2ccco2)n3C)cc1 | > 35 µM (inactive)
77 | Cc1sc(NC(=O)c2ccco2)c(CN2CCC(C)CC2)c1C | > 35 µM (inactive)
78 | CCN(CC)c1ccc(NC(=O)Cn2nnc(-c3cccc(OC)c3OC)n2)c(C)c1 | > 35 µM (inactive)
79 | O=C(/C=C/c1ccc2c(c1)OCO2)Nc1cccnc1 | > 35 µM (inactive)
80 | CCOC(=O)C1(C)NC(c2ccc(OC)cc2OC)C2C(=O)N(CC)C(=O)C21 (configuration not stated) | > 35 µM (inactive)
81 | Cc1ccc(NC(=O)Cn2cnc3c(=O)n(C)c(=O)n(C)c32)c(C)c1 | > 35 µM (inactive)
82 | Cc1sc2cc3c(c(C(=O)c4ccccc4)[n+]2c1C)-c1cccc2cccc-3c12 | > 35 µM (inactive)
83 | CCc1ccc(OCC(=O)Nc2ccncc2)c(Br)c1 | > 35 µM (inactive)
84 | CCN(CCCCCN(C)C)Cc1cc2ccccc2o1 | > 35 µM (inactive)
85 | CCOC(=O)N1CCN(C(=O)c2ccc(Cn3c(=S)[nH]c4cc(OCC)c(OCC)cc4c3=O)cc2)CC1 | 5.64 µM

Row | Structure (SMILES) | EC50
86 | Cc1ccc(C(=O)NC(=S)NNS(=O)(=O)c2ccc(C)cc2)cc1 | > 35 µM (inactive)
87 | Cc1cccc(NC(=S)N2CCC(N(C)CC3CCCO3)CC2)c1 (configuration not stated) | > 35 µM (inactive)
88 | CC(C)c1ccc(N(C(=O)c2snc(C(N)=O)c2N)C(C(=O)NC2CCCC2)c2ccncc2)cc1 (configuration not stated) | 21.4 µM
89 | COc1ccc(/C=N/NC(=O)c2ccoc2C)cc1O | > 35 µM (inactive)
90 | CCCCC(=O)NC(c1cccs1)c1cc(Cl)c2cccnc2c1O (configuration not stated) | > 35 µM (inactive)
91 | O=C(CSc1nnc(-c2ccncc2)o1)N1CCCCCC1 | > 35 µM (inactive)
92 | CS(=O)(=O)c1ccc2nc(NC(=O)C3CC3)sc2c1 | > 35 µM (inactive)
93 | COc1cc(C2CC(=O)N3CN(Cc4ccccc4)CSC3=C2C#N)ccc1OCc1ccccc1 (configuration not stated) | > 35 µM (inactive)
94 | CN1CCC2(CC1)N=C(c1ccc(F)cc1)C(=S)N2C(=O)c1ccc(C(C)(C)C)cc1 | > 35 µM (inactive)
95 | COc1ccc(CCNc2nncc(=O)[nH]2)cc1OC | > 35 µM (inactive)
96 | Cc1cc(-c2nnnn2-c2cc(Cl)cc(Cl)c2)no1 | > 35 µM (inactive)
97 | Cc1ccc2nc(SCC(=O)N3CCCCC3)nc(=O)n2c1 | > 35 µM (inactive)
98 | COC(=O)C(NC(=O)c1c(C)nn(C)c1Cl)c1ccccc1 (configuration not stated) | > 35 µM (inactive)
99 | Cc1cc(C(=O)O)oc(=O)c1 | > 35 µM (inactive)
100 | COc1ccc(CC(NC(C)=O)C(=O)NC2CCN(C(=O)c3cccc(Cl)c3)CC2)cc1OC (configuration not stated) | > 35 µM (inactive)
101 | Cn1ncc(Br)c1NC(=O)CSc1ccc(Cl)cc1 | > 35 µM (inactive)
102 | CN(C)CCCN(C(=O)CCS(=O)(=O)c1ccccc1)c1nc2cc3c(cc2s1)OCO3 | > 35 µM (inactive)
103 | O=C(NCCc1ccccc1)C1CCN(S(=O)(=O)c2ccc(-n3cnnn3)cc2)CC1 | > 35 µM (inactive)
104 | Cc1ccc(-c2cc(C(F)(F)F)n3nc(C(=O)Nc4c(C)n(C)n(-c5ccccc5)c4=O)cc3n2)cc1 | > 35 µM (inactive)
105 | COC(CN(C(=O)CCl)C(C(=O)NC1CCCCC1)c1ccc(Cl)cc1)OC (configuration not stated) | 19 µM
106 | COc1ccc(CC(=O)N2CCN(C(=O)Cc3ccc(OC)cc3)CC2)cc1 | > 35 µM (inactive)
107 | Cc1cc(OCC(=O)Nc2ccc3c(c2)OCCO3)cc(C)c1Cl | > 35 µM (inactive)
